The test system of one data set is INS1. The data set can be described thus: INS-1E survival protection against cytokine death – cell-based, luminescence, retest, dose response (AID 449756).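 Further: cell death triggered by IL-1 beta plus TNF-alpha plus IFN-gamma mixture; protective hits raise ATP signal compared with cytokine alone wells.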 In kind it is functional. The settings on record: Rattus norvegicus.
Another data set addresses Cytochrome P450 2C9 (Homo sapiens, UniProt P11712).
For data set [1], the target named is T1, Rac GTPase-activating protein 1 (Homo sapiens, UniProt Q9H0H5).
T1 sequence (Q9H0H5 whole entry): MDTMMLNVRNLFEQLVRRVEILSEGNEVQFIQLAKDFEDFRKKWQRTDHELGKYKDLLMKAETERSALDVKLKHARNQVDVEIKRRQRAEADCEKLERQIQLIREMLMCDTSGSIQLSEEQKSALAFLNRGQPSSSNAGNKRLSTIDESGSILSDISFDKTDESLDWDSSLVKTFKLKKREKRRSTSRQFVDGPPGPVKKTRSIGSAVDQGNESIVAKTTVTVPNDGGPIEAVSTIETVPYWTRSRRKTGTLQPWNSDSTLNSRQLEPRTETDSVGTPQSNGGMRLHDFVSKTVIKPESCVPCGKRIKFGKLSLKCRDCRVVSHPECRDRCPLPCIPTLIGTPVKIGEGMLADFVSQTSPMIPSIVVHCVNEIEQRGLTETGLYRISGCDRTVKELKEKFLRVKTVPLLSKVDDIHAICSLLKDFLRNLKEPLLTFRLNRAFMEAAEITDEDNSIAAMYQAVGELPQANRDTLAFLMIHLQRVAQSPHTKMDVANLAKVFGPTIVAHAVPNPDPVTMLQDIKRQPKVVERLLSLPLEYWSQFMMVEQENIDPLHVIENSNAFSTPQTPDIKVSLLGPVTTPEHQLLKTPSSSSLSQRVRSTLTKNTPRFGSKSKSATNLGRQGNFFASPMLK
The data set can be described thus: blockers of MgcRacGAP-driven Rac1 GTP hydrolysis – biochemical, ADP Hunter fluorescence, primary and confirmatory, confirmation (AID 624330). In kind it is functional.

The next data set has as its target Cytochrome P450 2C19 (Homo sapiens, UniProt P33261). Nature of the data set: Cytochrome panel assay with activity outcomes. Panel member name: p450-cyp2c19 Compounds with AC50 equal or less than 10 uM are considered active. In kind it is functional.
Data set [2] can be described thus: luciferase reporter signal suppression in cells – H4 neuroglioma cells, luminescence, dose response (AID 1990). In kind it is functional, cell-based.
Data set [3] in a line: Luminescence Cell-Based Dose Response HTS to Identify Inhibitors of 5'UTR Stem-Loop Driven Prion Protein mRNA Translation in H4 Neuroglioblastoma Cells. [Related pubchem assays: 1827 (Project Summary), 1813 (Primary HTS)]. The class given is functional.
Data set [4] in a line: alpha-synuclein stem-loop luciferase translation blockers – H4 neuroglioma cells, luminescence, confirmation (AID 1988). The class given is functional, cell-based.
For the next data set, the target named is Paired box protein Pax-8 (Homo sapiens, UniProt Q06710). Nature of the data set: PAX8 transcriptional activity inhibition in RMG-I – RMG-I cells, luciferase, cherry-pick, dose response (AID 687027).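 Further: luciferase reporter driven by Pax8 target thyroperoxidase promoter measured by SteadyGlo luminescence.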 In kind it is functional, cell-based.
Data set [5] can be described thus: Luminescence Cell-Based Dose Retest to Confirm Inhibitors of Cancer Stem Cells. [Related pubchem assays (depositor defined):AID2717, AID2721]. In kind it is functional. Particulars: Homo sapiens.
Data set [6] can be described thus: viability of uninfected HEp-2 cells – cell-based, HTS, cytotoxicity control for RSV inhibitor project, dose response (AID 2410). The class given is functional. The settings on record: human respiratory syncytial virus.
Data set [7] is described as follows: NIH-3T3 fibroblast cytotoxicity, dose response, cytotoxicity control, cell-based, fluorescence, Alamar Blue, secondary assay (AID 2327).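 Further: NIH-3T3 mouse fibroblasts cultured with fluconazole at 8 µg/mL.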 The class given is functional. (In general: Alamar Blue is a resazurin reagent that responds to reducing activity.)
Data set [8] can be described thus: fluconazole-exposed Candida albicans growth modulators – fluorescence, retest, confirmation (AID 2467). In kind it is functional, cell-based.
A short description of data set [9]: Trypanosoma cruzi growth suppression in host cells – NIH3T3 host cells, beta-gal luminescence, confirmation (AID 2044).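 Further: intracellular parasites grown in NIH/3T3 mouse fibroblasts as host cells; luminescent beta-galactosidase reporter signal from transgenic T. cruzi replicating inside host cells; inhibitors lower the luminescence signal.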 The class given is functional, cell-based.
Data set [10] in a line: NIH3T3 cell viability loss – ATP luminescence, mouse fibroblasts, counter-screen, dose response (AID 2010).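 Further: cells exposed to compound for about 90 hours before reading.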 In kind it is functional, cell-based. For orientation: A counterscreen serves to expose hits that act by an unwanted route or on another target.

SMILES strings stand for the structures. Activity calls are given as the source filed them.

Chain of Cytochrome P450 2C19 (P33261 whole entry): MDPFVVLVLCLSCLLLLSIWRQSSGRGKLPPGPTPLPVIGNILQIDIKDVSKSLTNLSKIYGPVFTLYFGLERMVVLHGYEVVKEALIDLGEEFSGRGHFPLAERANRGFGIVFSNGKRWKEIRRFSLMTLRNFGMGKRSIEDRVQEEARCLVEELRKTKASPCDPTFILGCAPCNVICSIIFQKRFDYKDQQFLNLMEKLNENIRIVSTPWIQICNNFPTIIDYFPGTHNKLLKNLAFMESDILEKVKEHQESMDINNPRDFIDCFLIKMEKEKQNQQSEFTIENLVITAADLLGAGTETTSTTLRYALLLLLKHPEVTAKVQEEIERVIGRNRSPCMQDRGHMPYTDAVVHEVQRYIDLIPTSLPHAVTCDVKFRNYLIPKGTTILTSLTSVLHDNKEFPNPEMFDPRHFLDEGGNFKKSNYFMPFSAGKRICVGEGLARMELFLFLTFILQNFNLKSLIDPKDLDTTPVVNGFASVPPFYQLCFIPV
Chain of Paired box protein Pax-8 (Q06710 whole entry): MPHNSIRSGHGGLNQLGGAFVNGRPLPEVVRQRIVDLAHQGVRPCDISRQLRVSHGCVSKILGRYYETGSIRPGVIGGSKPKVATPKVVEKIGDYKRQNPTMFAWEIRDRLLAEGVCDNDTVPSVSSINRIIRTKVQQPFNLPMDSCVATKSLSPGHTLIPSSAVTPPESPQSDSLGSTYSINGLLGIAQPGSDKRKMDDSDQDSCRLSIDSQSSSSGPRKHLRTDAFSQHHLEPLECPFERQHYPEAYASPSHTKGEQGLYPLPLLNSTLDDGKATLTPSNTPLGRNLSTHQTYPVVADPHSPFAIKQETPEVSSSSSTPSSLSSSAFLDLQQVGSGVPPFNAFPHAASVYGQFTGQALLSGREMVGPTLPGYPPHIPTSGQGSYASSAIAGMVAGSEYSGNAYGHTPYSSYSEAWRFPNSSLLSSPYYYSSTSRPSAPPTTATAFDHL
Chain of Cytochrome P450 2C9 (P11712 whole entry): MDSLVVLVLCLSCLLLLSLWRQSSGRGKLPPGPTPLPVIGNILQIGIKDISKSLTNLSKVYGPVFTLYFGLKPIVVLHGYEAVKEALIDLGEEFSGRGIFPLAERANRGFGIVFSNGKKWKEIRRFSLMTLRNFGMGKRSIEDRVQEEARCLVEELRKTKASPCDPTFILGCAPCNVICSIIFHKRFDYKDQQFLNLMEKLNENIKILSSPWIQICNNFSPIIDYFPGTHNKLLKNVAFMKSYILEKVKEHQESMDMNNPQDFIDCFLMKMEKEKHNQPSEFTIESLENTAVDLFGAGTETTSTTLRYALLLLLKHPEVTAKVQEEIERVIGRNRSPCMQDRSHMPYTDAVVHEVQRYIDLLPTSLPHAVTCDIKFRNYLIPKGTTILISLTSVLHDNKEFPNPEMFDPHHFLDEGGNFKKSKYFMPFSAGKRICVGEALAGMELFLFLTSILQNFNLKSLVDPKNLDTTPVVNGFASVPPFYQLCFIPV

One may read the AC50 as the concentration giving half of the maximal activity seen. In the case of `C/C(=N\NC(=O)c1ccc(NS(=O)(=O)c2cccs2)cc1)c1ccccn1`, in the data set on INS1, the AC50 is 3.08 µM (active).
Consider `Cc1nc(S(=O)(=O)NC2CCCCC2)c(C#N)c(C)c1Cl`, for which the AC50 on Cytochrome P450 2C9 is 28.2 µM (inconclusive).
What is called IC50 is the concentration that inhibits the measured activity by half. With `Cn1cnc2cc(NCc3ccccc3O)ccc21`, the IC50 in data set [1] is 93.9 µM (active).
Turning to `CN(C)S(=O)(=O)c1cccc(NC2=NN=C(c3ccccc3)CS2)c1`, in the data set with INS1, the AC50 is 7.27 µM (active).
Same read-out and setting: with `Cc1ccc(S(=O)(=O)[N-]C2=C([n+]3ccn(CCC(C)C)c3)C(=O)c3ccccc3C2=O)cc1` the figure was 5.8 µM (active).
On to `CC(Cc1ccccc1)NC(=O)CSc1nc2nc3c(cc2c(=O)n1-c1ccccc1)COC(C)(C)C3` (centres undefined), for which the AC50 at Cytochrome P450 2C19 (read-out: AC50) was 35.5 µM (inconclusive); at Cytochrome P450 2C9, 15.8 µM (inconclusive).
For `O=c1[nH]c(=O)n(Cc2ccco2)c2c1C(C(F)(F)F)(C(F)(F)F)NC(c1ccc(F)cc1)=N2`, the AC50 in the data set on INS1 was 3.11 µM (active).
As for `Cc1cccc(C(=O)NN(C)c2nc(-c3ccccc3)nnc2C(F)(F)F)c1`, the AC50 was 0.708 µM (inconclusive) at Cytochrome P450 2C19 (read-out: AC50) and 0.316 µM (inconclusive) at Cytochrome P450 2C9.
As a reminder, the EC50 is the midpoint of the concentration-response curve. For the molecule `COc1ccc(N2CCCC2)c(NC(=O)COc2ccccc2Cl)c1`, the EC50 in data set [2] was 13.9 µM (active); in data set [3], > 120 µM (not active); in data set [4] it was 13.1 µM (active).
As to `Nc1nc(-c2ccc(NC(=O)c3ccco3)cc2)cs1`, the concentration giving a half-maximal response (EC50) in data set [3] is 11.7 µM (inconclusive); in data set [4], 8.2 µM (inconclusive).
As for `C/C(=C\C(=O)c1ccccc1)Nc1ccc(O)cc1`, in data set [1], the IC50 is 20.2 µM (active).
Take `COc1cccc(C(=O)Nc2cccc(OCC(=O)O)c2)c1`: the EC50 in [2] is > 120 µM (not active); in data set [3], > 120 µM (not active); in data set [4], 25.9 µM (active).
For `CCCCN1C(=O)C(NC(=O)c2cccnc2)(C(F)(F)F)C2=C1CC(C)(C)CC2=O` (centres undefined), the AC50 entry on Cytochrome P450 2C19 was “inconclusive”; at Cytochrome P450 2C9, 35.5 µM (inconclusive).
With `C[C@@H]1CN([C@@H](C)CO)C(=O)c2cc(NC(=O)NC3CCCCC3)ccc2O[C@@H](C)CCCCO[C@H]1CN(C)Cc1ccc(C(F)(F)F)cc1`, the AC50 on Paired box protein Pax-8 is 11.5 µM (active).
Consider `Nc1cc2c(nc3c4ccccc4c(N)cc3[n+]2-c2cccc3ccccc23)c2ccccc12.Nc1cc2c(nc3c4ccccc4ccc3[n+]2-c2cccc3ccccc23)c2ccccc12`, for which, on Cytochrome P450 2C9, the AC50 was 2.51 µM (inconclusive).
Turning to `C[C@@H]1CN([C@H](C)CO)C(=O)c2cc(NC(=O)Nc3ccc(F)cc3)ccc2O[C@@H](C)CCCCO[C@H]1CN(C)C(=O)Nc1ccc(F)cc1`, the AC50 on Paired box protein Pax-8 was 10.8 µM (active).
Turning to `CCC1CSC(Nc2ccc(C(=O)/C=C/c3ccc(Br)cc3)cc2)=N1` (centres undefined), in data set [5], the AC50 was 2 µM (active).
Regarding `CN(Cc1c(F)cccc1Cl)C(=O)c1cc2ccccc2o1`, the AC50 in the data set with INS1 is > 260 µM (inactive).
Consider `Cc1ccc2cc(CCNC(=O)c3ccc(Br)o3)c(O)nc2c1`, for which the AC50 at Cytochrome P450 2C9 was 10 µM (inconclusive).
On to `O=C(COCc1cc(-c2ccc3c(c2)OCO3)on1)N1CCN(c2cccc(C(F)(F)F)c2)CC1`, for which, in data set [5], the AC50 was 1.51 µM (active).
Turning to `O=C(Nc1cc(Br)c(O)c(Br)c1)c1cccc(NC(=O)c2ccco2)c1`, the IC50 in data set [1] is 95.2 µM (active).
As for `COc1ccc(NC(=O)c2cc3ccc(O)cc3o/c2=N\O)cc1`, the AC50 in data set [5] was 5.22 µM (active). The IC50 in data set [1] is 42 µM (active).
Turning to `O=C(NNC(=O)c1ccccc1O)c1ccc(Cl)cc1`, on Cytochrome P450 2C9, the AC50 is 20 µM (inconclusive).
On to `C[C@@H]1CN([C@H](C)CO)C(=O)c2c(c3ccccc3n2C)-c2ccccc2CO[C@@H]1CN(C)C`, for which the AC50 at Paired box protein Pax-8 was 66.1 µM (active).
Turning to `CN(C)S(=O)(=O)c1ccc(N2C(=O)CC2(/C=C/c2ccccc2)C(=O)NC2CCCC2)cc1` (centres undefined), the EC50 in [2], in data set [3] and in [4] was > 120 µM (not active) in each case.
Turning to `CCOc1ccccc1CN1CCC(N2CCOCC2)CC1`, the IC50 in data set [1] was 83 µM (active).
Regarding `CNc1oc(-c2ccc(Cl)cc2)nc1P(=O)(c1ccccc1)c1ccccc1`, in data set [5], the AC50 was 7.13 µM (active).
`CCCCCSc1nnc(C)c(O)n1`: the AC50 at Cytochrome P450 2C19 (read-out: AC50) is 39.8 µM (inconclusive); at Cytochrome P450 2C9, 8.91 µM (inconclusive).
In the case of `c1ccc(CSc2nnc(-c3sccc3-n3cccc3)o2)cc1`, the AC50 on Cytochrome P450 2C9 is 39.8 µM (inconclusive).
In general, CC50 refers to the concentration giving 50% cytotoxicity. As to `COc1ccc(/C=C/c2nc3cc(-c4ccccc4)ccc3o2)cc1O`, the CC50 in data set [6] was 36.3 µM (active). Further, in data set [5], the AC50 is 4.06 µM (active).
As to `Cc1cccc(NC(=O)c2ccccc2OCC(=O)c2ccc(F)cc2)c1`, the EC50 in [2], in data set [3] and in [4] was > 120 µM (not active) in each case.
As for `O=[N+]([O-])c1ccc(CSCc2ccc(Cl)cc2)cc1`, the AC50 on Cytochrome P450 2C9 was 7.94 µM (inconclusive).
`COC(=O)C1=C(CSc2nc3ccccc3o2)NC(=O)NC1c1cc(C)ccc1C` (centres undefined): the EC50 in data set [2], in data set [3] and in data set [4] was > 120 µM (not active) throughout.
Take `COc1cccc(Nc2nc(-c3cccs3)nc3ccccc23)c1`: the CC50 in [6] is 13.9 µM (active). Moreover, in [5], the AC50 is 3.42 µM (active).
Turning to `CN(C)N1C(N)=C(C#N)C(c2cccc3ccccc23)C2=C1CC(c1ccccc1)CC2=O` (centres undefined), the AC50 in data set [5] is 1.15 µM (active).
Regarding `C=CCNC(=S)N/N=C/c1ccc(-c2ccc(OC)cc2)o1`, the EC50 in [7] is > 150 µM (inactive); in data set [8] it was > 38 µM (not active); in data set [9], 1.76 µM (active); in data set [10], > 60 µM (not active).
Consider `CN(C)CCCN(C(=O)COc1ccc(Cl)cc1)c1nc2cc3c(cc2s1)OCO3`, for which the half-maximal activity concentration (AC50) in the data set on INS1 was 14.2 µM (active).
With `CC(C)c1nnc(-c2ccc(Cl)cc2)c(N(C)C)n1`, the AC50 on Cytochrome P450 2C9 is 10 µM (inconclusive).
Take `O=C(NC1CC1)c1ccc(-c2nc3ccccc3s2)s1`: the EC50 in [2] is 4.13 µM (active); in data set [3] it was 7.52 µM (active); in data set [4], 13.6 µM (inconclusive).
On to `CCCCN1C(=O)/C(=C/c2ccc(N(C)C)cc2)C(=O)N(Cc2ccco2)C1=O`, for which the AC50 was 31.6 µM (inconclusive) at Cytochrome P450 2C19 (read-out: AC50) and 35.5 µM (inconclusive) at Cytochrome P450 2C9.
As to `COc1ccc(CCNCCN2CCOCC2)cc1`, the IC50 in data set [1] was 77.1 µM (active).
For `Cc1ccccc1-[n+]1c(-c2ccccc2)cc(-c2ccccc2)cc1-c1ccccc1.[O-][Cl+3]([O-])([O-])[O-]`, the values for the EC50 in [7] and in data set [8] were 36.3 µM (active) and 0.21 µM (active), respectively. In the data set on INS1, the AC50 is 2.26 µM (active).
Consider `C=CC[n+]1c(/C=C/c2ccc(OC(C)=O)c(OC)c2)ccc2ccccc21`, for which the 50% inhibitory concentration (IC50) in [1] was 61.2 µM (active).
As to `CCN1CCN(C(=O)c2ccc(CSc3ccc(C)cc3)cc2)CC1`, the EC50 in data set [7] was > 150 µM (inactive). In addition, in data set [5], the AC50 is < 0.16 µM (active).
For `COc1cc2cc(-c3ccc(O)cc3O)nc(C)c2cc1OC`, in data set [1], the IC50 was 29.9 µM (active).
In the case of `O=c1c2sc3ccccc3c2[nH]c(=S)n1CCN1CCOCC1`, in data set [1], the IC50 was 91.3 µM (active).
Take `Cn1c(=S)c2nc(SCCN3CCCC3)[nH]c2n(C)c1=O`: on Cytochrome P450 2C9, the AC50 is 3.16 µM (inconclusive).

The values above are taken from ChEMBL document CHEMBL1201862, “PubChem BioAssay data set” (2004).
